# Reference: article PMC11791199 (Scientific Reports, 2025)
# “Also recorded” adds a separate entry of the source.
# Legend:
# [1] = target: ClpC1 NTD K85A mutant (Mycobacterium tuberculosis, UniProt P9WPC9, K85A); format: binding
# [2] = target: ClpC1 NTD F80A mutant (Mycobacterium tuberculosis, UniProt P9WPC9, F80A); format: binding
compound,measurement,setting,value
"CC1=C[C@@H](/C=C(\Cl)c2ccc(C(=O)O)cc2)[C@]2(C(=O)O)C=C[C@@H](CCOC(=O)c3ccc(NCc4ccccc4)cc3)C[C@@H]2C1 [F5, (2R,4aR,5S,8aR)-2-(2-((4-(benzylamino)benzoyl)oxy)ethyl)-5-((Z)-2-(4-carboxyphenyl)-2-chlorovinyl)-7-methyl-1,5,8,8a-tetrahydronaphthalene-4a(2H)-carboxylic acid]",binding by ITC,[1],no binding could be observed; also recorded: no binding was observed
same,binding by ITC,[2],no binding could be observed; also recorded: no binding was observed
